From patent US11993588B2, “Crystalline forms of a MAGL inhibitor” (H. Lundbeck A/S, priority 2016, dated 2024)

Legend:
Format in all cases: physicochemical
[1] = Solvent solubility screen for Compound 2; settings: amorphous HCl salt; for solubility: 40 °C, thermodynamic from solid, read-out: Approximate Solubility
Method: Approximately 10 mg of amorphous HCl salt (from 500 mg batch) was placed in each of 28 vials and 5 volume aliquots of the appropriate solvent systems were added to the appropriate vial. Between each addition, the mixture was checked for dissolution and if no dissolution was apparent, the mixture was heated to ca. 40° C. and checked again. This procedure was continued until dissolution was observed or 100 volumes of solvent had been added. Then a further addition of 100 volumes was added to samples which had not dissolved. If 200 volumes of solvent were added without dissolution of the material, solubility was calculated to be below this point.

[2] = Gravimetric vapor sorption (GVS); settings: for weight uptake / hygroscopic nature: GVS; for weight uptake: at 90% RH; for Post-GVS analysis by XRPD (form change): after GVS sorption/desorption cycle
Method: Approximately 10 mg of sample was placed into a mesh vapour sorption balance pan and loaded into an IGASorp Moisture Sorption Analyser balance by Hiden Analytical. The sample was subjected to a ramping profile from 40-90% relative humidity (RH) at 10% increments, maintaining the sample at each step until a stable weight had been achieved (98% step completion). After completion of the sorption cycle, the sample was dried using the same procedure to 0% RH, and finally taken back to the starting point of 40% RH. The weight change during the sorption/desorption cycles were plotted, allowing for the hygroscopic nature of the sample to be determined.

[3] = Dynamic vapor sorption (DVS)
Method: Approximately 10 mg of sample was placed into a mesh vapour sorption balance pan and loaded into a DVS-1 dynamic vapour sorption balance by Surface Measurement Systems. The sample was subjected to a ramping profile from 40-90% relative humidity (RH) at 10% increments, maintaining the sample at each step until a stable weight had been achieved (99.5% step completion). After completion of the sorption cycle, the sample was dried using the same procedure to 0% RH and then a second sorption cycle back to 40% RH. The weight changes during the sorption/desorption cycles were plotted, allowing for the hygroscopic nature of the sample to be determined. XRPD analysis was then carried out on any solid retained.

7-day stability testing = assay: 7-day stability testing
Method: (§1) Form 2 of Compound 2 was scaled up in two solvents. Material underwent 7-day stability testing and/or aqueous solubility assessment. The 7-day stability testing was conducted as follows. Material was exposed to environments of 40° C./75% RH, ambient light and 80° C. for 7 days and the resulting solids analysed by XRPD to determine if any changes had occurred, and by HPLC to determine purity. The aqueous solubility assessment was conducted as follows. A slurry was created in deionised water (5.1 mg of Form 2 and 300 μL of water) and shaken for ca. 24 hours at ambient temperature (ca. 22° C.). The initial pH and final pH were measured. The resulting mixture was then isolated by centrifuge filtration, and the solution obtained analysed by HPLC to calculate the concentration of material dissolved. Remaining solid was analysed by XRPD to determine if any changes had occurred on slurrying.

[4] = Aqueous solubility assessment
Method: as §1

[5] = Solubility measurement in t-BME; settings: organic solvent or mixture, thermodynamic from solid; solvent addition method, 10 mg sample, up to 100 mL t-BME
Method: Solubility of Form 1 of Compound 2 was measured using the solvent addition method as described in Example 14 on 10 mg of sample. t-BME was added in 1 mL aliquots up to 10 mL, then in 5 mL and 10 mL aliquots up to a total volume of 100 mL.

[6] = Competitive slurrying of Form 1 and 2 mixtures; settings: 50:50 Form 1 and 2 slurries in acetone, ethyl acetate, methylethyl ketone, 2-propanol; 60° C. and ambient, ca. 48 hours
Method: Four solvents (acetone, ethyl acetate, methylethyl ketone, and 2-propanol) were chosen for competitive slurrying. Saturated solutions were prepared of Form 1 in the chosen solvents and added to 20 mg of 50:50 Form 1 and 2 mixtures to create slurries. The slurries were shaken at 60° C. and ambient temperature for ca. 48 hours. Solids were then isolated by centrifuge filtration and analysed by XRPD.

[7] = Heating to 140° C., cooling and XRPD; settings: heated to 140° C. and allowed to cool
Method: Material from Compound 2 (Form 1) was also heated to 140° C. and allowed to cool. The material was analysed by XRPD (FIG. 12), to determine any form change, which could be consistent with a solid-solid transition.

[8] = listed as Form 1 of Compound 2, mono-HCl salt
[9] = listed as Form 2 (Compound 2), mono-HCl salt

## Cl.O=C(OC(C(F)(F)F)C(F)(F)F)N1CCN(Cc2ccc(C(F)(F)F)cc2N2CCCC2)CC1 [Compound 2, 1,1,1,3,3,3-hexafluoropropan-2-yl 4-(2-(pyrrolidin-1-yl)-4-(trifluoromethyl)benzyl)piperazine-1-carboxylate mono-HCl salt]
[1]; aqueous with cosolvent or surfactant or cyclodextrin, 2-Propanol:water (50%), partial dissolution
  solubility: < 5 mg/mL
[1]; aqueous with cosolvent or surfactant or cyclodextrin, Acetone:water (50%), partial dissolution
  solubility: < 5 mg/mL
[1]; aqueous with cosolvent or surfactant or cyclodextrin, Methanol:water (50%)
  solubility: < 5 mg/mL
[1]; organic solvent or mixture, 1,4-Dioxane
  solubility: 5 mg/mL
[1]; organic solvent or mixture, 1-Butanol
  solubility: < 5 mg/mL
[1]; organic solvent or mixture, 2-Ethoxyethanol, precipitated overnight
  solubility: 49 mg/mL
[1]; organic solvent or mixture, 2-Methyl tetrahydrofuran
  solubility: < 5 mg/mL
[1]; organic solvent or mixture, 2-Propanol
  solubility: 5 mg/mL
[1]; organic solvent or mixture, Acetone
  solubility: 40 mg/mL
[1]; organic solvent or mixture, Acetonitrile
  solubility: 40 mg/mL
[1]; organic solvent or mixture, Anisole, partial dissolution
  solubility: < 5 mg/mL
[1]; organic solvent or mixture, Dichloromethane, precipitated overnight
  solubility: 70 mg/mL
[1]; organic solvent or mixture, Diisopropyl Ether
  solubility: < 5 mg/mL
[1]; organic solvent or mixture, Dimethylacetamide
  solubility: 99 mg/mL
[1]; organic solvent or mixture, Dimethylformamide
  solubility: 99 mg/mL
[1]; organic solvent or mixture, Dimethylsulfoxide
  solubility: 66 mg/mL
[1]; organic solvent or mixture, Ethanol
  solubility: 33 mg/mL
[1]; organic solvent or mixture, Ethyl acetate
  solubility: 5 mg/mL
[1]; organic solvent or mixture, Isopropyl acetate
  solubility: < 5 mg/mL
[1]; organic solvent or mixture, Methanol
  solubility: 101 mg/mL
[1]; organic solvent or mixture, Methyl isobutyl ketone, partial dissolution
  solubility: < 5 mg/mL
[1]; organic solvent or mixture, Methylethyl ketone
  solubility: 28 mg/mL
[1]; organic solvent or mixture, N-Methyl-2-pyrrolidone
  solubility: 101 mg/mL
[1]; organic solvent or mixture, Tetrahydrofuran, precipitated overnight
  solubility: 25 mg/mL
[1]; organic solvent or mixture, Toluene
  solubility: < 5 mg/mL
[1]; organic solvent or mixture, tert-Amyl alcohol
  solubility: < 5 mg/mL
[1]; organic solvent or mixture, tert-Butylmethyl ether
  solubility: < 5 mg/mL
[1]; Water
  solubility: < 5 mg/mL
[1]; Acetone:water (50%), precipitated after ca. 2 h
  concentration at which dissolution was initially observed: 18000 µg/mL
[2]; [8]
  weight uptake: < 0.1%
  hygroscopic nature: very non-hygroscopic
  Post-GVS analysis by XRPD (form change): remain unchanged
[2]; [9]
  weight uptake: < 0.08%
  hygroscopic nature: (very) non-hygroscopic
  Post-GVS analysis by XRPD (form change): remained the same crystalline form
[3]; DVS
  hygroscopic nature: non-hygroscopic
[3]; DVS, at 90% RH
  total uptake: < 0.12%
[3]; after DVS cycle
  Post-DVS XRPD analysis (form change): remain the same crystalline form
7-day stability testing; 40° C./75% RH for 7 days
  HPLC purity after stability testing: > 99.9%
7-day stability testing; 40° C./75% RH, ambient light and 80° C. for 7 days
  solid form by XRPD after stability testing: remain the same form
7-day stability testing; 80° C. for 7 days
  HPLC purity after stability testing: 99.9%
7-day stability testing; ambient light / ambient conditions for 7 days
  HPLC purity after stability testing: > 99.9%
[4]; [8]
  dissociation of the salt in water: dissociates readily to the free base
[4]; [9]
  dissociation of the salt in water: dissociate to the free base
[4]; thermodynamic from solid, slurry in deionised water, ca. 24 hours, ambient (ca. 22° C.), initial pH 1.87, final pH 1.68
  solubility at 24 h: 0.5 mg/mL
[5]
  solubility: < 0.1 mg/mL
[6]
  relative thermodynamic stability of polymorphs: thermodynamically more stable than Form 1
[7]
  form change by XRPD after heating: remain unchanged
